The record followed here is patent EP4129284B1, “SERTACONAZOL FOR PROVIDING A SPORISTATIC AND/OR SPORICIDAL EFFECT” (Dr. Pfleger Arzneimittel GmbH, priority 2021, dated 2023).

Values after ≈ are worked out from the molar mass of the structure shown.

Assay in all cases: Microtiter plate laser nephelometry (MLN) growth test
Common to all, as to assay type: cell-based

Assay [1] has as its system Candida albicans DSM 1386. The settings on record: for IC50: DSM1386, C. albicans (yeast), SGB, 37 °C, 48 h, growth as area under curve vs untreated control; for MIC: DSM1386, C. albicans, plating of wells without visible growth in the MLN-test. The procedure: (§1) To allow a reasonable comparison between antimycotic drugs, the concentrations to be used in the following tests was determined first. Thus, the antimycotic effect was determined by microtiter plate laser nephelometry (MLN).
(§2) MLN is a direct method for measuring light, which is scattered by particles suspended in a solution in angles of up to 90 degree. With this technique, already minor particle concentrations can be determined in a suspension. Thus, this method provides a higher sensitivity than usual transmission readers, which detect the reduction of the intensity of light passing a suspension. Further, it is a very reliable technique for application in a 96-well format. It can be used to monitor the growth of microorganisms by the turbidity of the respective medium and to examine the effect of antimicrobial substances on the growth of microorganisms. Compared to other applied methods, MLN allows high throughput screenings, incubation over a long time and in situ monitoring of changes in the dose-response-curves.
(§3) Moreover, in most techniques, the minimum inhibitory concentration (MIC) can only be determined afterwards, whereas MLN allows the in situ acquisition of dose-response-curves and the simultaneous monitoring of changes in the IC50.
(§4) Candida albicans DSM 1386, Candida parapsilosis DSM 5784, Trichophyton rubrum DSM 16111,Trichophyton interdigitale IHEM 22939, Trichophyton soudanense DSM 103786, and Trichophyton mentagrophytes DSM 107608 were obtained from the DSMZ (German Collection of Microorganisms and Cell Cultures; Deutsche Sammlung von Mikroorganismen und Zellkulturen). Epidermophyton floccosum and Scorpolariopsis brevicaulis were obtained from a round robin test.
(§5) The yeasts were cultivated in Sabouraud-Glucose-Bouillon (SGB; Merck) for 24 h at 37°C at aerobic conditions. Dermatophytes were cultivated on Dermasel-Agarplates (Oxoid) for 3 weeks and subsequently treated with 5 mL sterile, physiological saline solution (Lot 14HD24, Fresenius Kabi Deutschland GmbH) for detaching the spores. The spore suspensions were transferred into sterile 50-ml-tubes (Greiner Bio-One), vortexed for 20 s and separated by cell sieves (40 µm, Greiner Bio-One). Subsequently, the spore number was determined via Neubauer-improved counting chambers and the spore suspension was adjusted to approximately 2 × 10^3/ml in SBG (Merck) for the MLN-experiments.
(§6) Solutions of sertaconazol, ciclopiroxolamin and terbinafin were prepared as 10 µg/µL DMSO (Sigma-Aldrich). The respective test concentrations were then obtained by diluting these solutions in SGB (Merck).
(§7) The MLN-test was then performed according to NCCLS M27-A2 and DIN EN 27027 as previously described (Burmester A, Hipler UC, Uhrlaß S, Nenoff P, Singal A, Verma SB, Elsner P, Wiegand C. Indian Trichophyton mentagrophytes squalene epoxidase erg1 double mutants show high proportion of combined fluconazole and terbinafine resistance. Mycoses. 2020; doi: 10.111 1/myc.13150). […] of the respective dilutions of sertaconazol, ciclopiroxolamin or terbinafin were added to the respective wells of a sterile, clear 96-well microplate (Greiner Bio-One) in quadruplicates together with 100 µL of the microorganism suspensions (as above). Blanks for each analysed substance concentration were added to each assay. The microtiter plates were sealed with a transparent foil (Greiner Bio-One). To allow the gas exchange, a perforation was applied to the right edge of the respective wells. The microtiter plates were then inserted in the microtiter plate laser nephelometer (NEPH-ELOstar Galaxy, BMG Labtech) and incubated at 37 °C while shaking for 48 h (yeasts) or, respectively, 120 h (mold, dermatophytes). For determining the growth of the microorganisms, the turbidity of each analysed substrate concentration was assigned to the incubation time. Subsequently, the area under curve was determined by the results and calculated as percentage of the untreated control (growth [%]). […]

Assay [2] deals with Candida parapsilosis DSM 5784. The settings on record: Lodderomyces parapsilosis, DSM5784; for IC50: C. parapsilosis (yeast), SGB, 37 °C, 48 h, growth as area under curve vs untreated control; for MIC: C. parapsilosis, plating of wells without visible growth in the MLN-test. The procedure:
as §1, §2, §3, §4, §5, §6, §7

Assay [3] has as its system Epidermophyton floccosum. The settings on record: E. floccosum; for MIC: plating of wells without visible growth in the MLN-test; for IC50: spore suspension in SGB, 37 °C, 120 h, growth as area under curve vs untreated control. The procedure: as §1, §2, §3, §4, §5, §6, §7
Assay [4] relates to S. brevicaulis. The settings on record: Scopulariopsis brevicaulis; for IC50: S. brevicaulis (mold), SGB, 37 °C, 120 h, growth as area under curve vs untreated control; for MIC: S. brevicaulis, plating of wells without visible growth in the MLN-test. As to the method:
as §1, §2, §3, §4, §5, §6, §7

Assay [5] concerns Trichophyton interdigitale IHEM 22939. To be noted: IHEM22939, T. interdigitale; for MIC: plating of wells without visible growth in the MLN-test; for IC50: spore suspension in SGB, 37 °C, 120 h, growth as area under curve vs untreated control. As to the method:
as §1, §2, §3, §4, §5, §6, §7

Assay [6] concerns Trichophyton mentagrophytes DSM 107608. The settings on record: DSM107608, T. mentagrophytes; for MIC: plating of wells without visible growth in the MLN-test; for IC50: spore suspension in SGB, 37 °C, 120 h, growth as area under curve vs untreated control. The procedure: as §1, §2, §3, §4, §5, §6, §7
Assay [7] relates to Trichophyton rubrum DSM 16111. The settings on record: DSM16111, T. rubrum; for MIC: plating of wells without visible growth in the MLN-test; for IC50: spore suspension in SGB, 37 °C, 120 h, growth as area under curve vs untreated control. As to the method:
as §1, §2, §3, §4, §5, §6, §7

For assay [8], the system named is Trichophyton soudanense DSM 103786. To be noted: DSM103786, T. soudanense; for MIC: plating of wells without visible growth in the MLN-test; for IC50: spore suspension in SGB, 37 °C, 120 h, growth as area under curve vs untreated control. As to the method: as §1, §2, §3, §4, §5, §6, §7

With `Cc1cc(C2CCCCC2)n(O)c(=O)c1` [Ciclopiroxolamin, ciclopiroxolamin], the IC50 in assay [1] came to 4.01 ± 0.71 µg/mL (≈ 19.3 µM); in assay [2] it was 4.73 ± 0.09 µg/mL (≈ 22.8 µM); in assay [3], 1.46 ± 0.22 µg/mL (≈ 7.04 µM); in assay [4], 4.85 ± 1.79 µg/mL (≈ 23.4 µM); in assay [5], 2.62 ± 0.62 µg/mL (≈ 12.6 µM); in assay [6], 2.09 ± 0.78 µg/mL (≈ 10.1 µM). Also, the IC50 in assay [7] is 1.02 ± 0.22 µg/mL (≈ 4.92 µM); in assay [8], 1.43 ± 0.78 µg/mL (≈ 6.9 µM). Further, the MIC is 40 µg/mL (≈ 193 µM) in assay [1]; 80 µg/mL (≈ 386 µM) in assay [2]; 7.5 µg/mL (≈ 36.2 µM) in assay [3]; 60 µg/mL (≈ 289 µM) in assay [4]; 10 µg/mL (≈ 48.2 µM) in assay [5]; 10 µg/mL (≈ 48.2 µM) in assay [6]. For the same compound, the minimum inhibitory concentration (MIC) in assay [7] worked out at 10 µg/mL (≈ 48.2 µM); in assay [8], 5.5 µg/mL (≈ 26.5 µM).
In the case of `Clc1ccc(C(Cn2ccnc2)OCc2csc3c(Cl)cccc23)c(Cl)c1` (centres unmarked) [Sertaconazol, sertaconazol], the IC50 in assay [1] was 0.54 ± 0.12 µg/mL (≈ 1.23 µM); in assay [2], 0.0025 ± 0.0001 µg/mL (≈ 0.00571 µM); in assay [3] it was 0.022 ± 0.003 µg/mL (≈ 0.0503 µM); in assay [4] it was 0.11 ± 0.03 µg/mL (≈ 0.251 µM); in assay [5], 0.39 ± 0.01 µg/mL (≈ 0.891 µM); in assay [6], 0.018 ± 0.003 µg/mL (≈ 0.0411 µM). Also, the IC50 turned out to be 0.0028 ± 0.0003 µg/mL (≈ 0.0064 µM) in assay [7] and 0.0014 ± 0.0001 µg/mL (≈ 0.0032 µM) in assay [8]. Also, the minimal inhibitory concentration (MIC) was 40 µg/mL (≈ 91.4 µM) in assay [1]; 20 µg/mL (≈ 45.7 µM) in assay [2]; 1.6 µg/mL (≈ 3.65 µM) in assay [3]; 7.5 µg/mL (≈ 17.1 µM) in assay [4]; 12.5 µg/mL (≈ 28.6 µM) in assay [5]; 3.8 µg/mL (≈ 8.68 µM) in assay [6]. In addition, the figures for the MIC in assay [7] and in assay [8] were 1.3 µg/mL (≈ 2.97 µM) and 3.1 µg/mL (≈ 7.08 µM), respectively.
In the case of `CN(C/C=C/C#CC(C)(C)C)Cc1cccc2ccccc12` [Terbinafin, terbinafin], the IC50 in assay [1] is 24.2 ± 2.99 µg/mL (≈ 82.9 µM); in assay [2], 0.098 ± 0.002 µg/mL (≈ 0.336 µM); in assay [3] it was 0.0021 ± 0.0001 µg/mL (≈ 0.00721 µM); in assay [4], 0.69 ± 0.03 µg/mL (≈ 2.37 µM); in assay [5], 0.0038 ± 0.0008 µg/mL (≈ 0.013 µM); in assay [6], 4.66 ± 0.04 µg/mL (≈ 16 µM). Besides, the IC50 was found to be 0.0015 ± 0.0002 µg/mL (≈ 0.00515 µM) in assay [7] and 0.0016 ± 0.0005 µg/mL (≈ 0.00549 µM) in assay [8]. In addition, the MIC worked out at 3.8 µg/mL (≈ 13 µM) in assay [2]; 0.02 µg/mL (≈ 0.0686 µM) in assay [3]; 40 µg/mL (≈ 137 µM) in assay [4]; 0.02 µg/mL (≈ 0.0686 µM) in assay [5]; 20 µg/mL (≈ 68.6 µM) in assay [6]; 0.006 µg/mL (≈ 0.0206 µM) in assay [7]. Besides, the lowest concentration to inhibit growth in assay [8] (MIC) was 0.015 µg/mL (≈ 0.0515 µM).

For orientation: IC50 means the point on the concentration scale where inhibition reaches its midpoint. A low value points to greater potency in that assay. As usually defined, the MIC is the smallest concentration in the dilution series that meets the test's criterion for growth inhibition. Read a high MIC as a need for much substance.
